This note sets out measurements from patent publication US9907879B2, “Haemostatic composition comprising crystalline polyphosphate” (BK Giulini GMBH, priority 2013, dated 2018).

The subject of series [1] is thrombin formation in blood plasma. The series can be described thus: Assay for measuring thrombin formation in real-time (thrombogram). It counts as biochemical. As to conditions: low-thrombocyte plasma; maximum thrombin concentration in thrombogram. As for the experimental part:
This method was used to determine the formation of thrombin in blood plasma, triggered in each case by the polyphosphates, in relation to time and to the amounts of polyphosphate used. With the aid of the so-called thrombograms thus obtained, it is possible to draw conclusions concerning the response rate and the extent of thrombin formation. The measurements were carried out in accordance with the instructions from Thrombinoscope BV (manufacturer of the below-mentioned fluorogenic substrate) in a fluorometer (Fluoroscan Ascent, Thermo Scientific) equipped with a dispenser (see F. Müller et al., Cell 2009, 139, 1143-1156 and Supplemental Data). […] Inner filter effects and the substrate consumption were corrected by calibrating each measurement against a fluorescence curve which was determined by means of a mixture of the plasma (80 μl) with a fixed amount of thrombin/α2-macroglobulin complex (Thrombin Calibrator, Thrombinoscope BV). […]
Characteristic of the thrombograms are, in particular, the delay time and the endogenous thrombin potential (ETP). […] ETP refers to the integral of the measured curve of the thrombin concentration. […]
Table 1 below characterizes the investigated phosphates in terms of their water solubility, their chain length, their solid structure and their hemostatic action. Here, water-soluble refers to phosphates having a water solubility of at least 1 g per 100 g of water, as determined by the above-described technique. Here, hemostatic refers to phosphates where the thrombograms, as determined by the above-described technique, have a maximum thrombin concentration of at least 50 nM. As can be clearly read off from Table 1, all the crystalline, water-insoluble polyphosphates according to the invention are notable for a hemostatic action, whereas amorphous, water-soluble polyphosphates and also crystalline mono-, tri- and metaphosphates are not hemostatic.

A short description of series [2]: Determination of solubility in water. It counts as physicochemical. Conditions: distilled water, 20-22° C., shaken 20 min.
Procedure: The polyphosphates to be investigated were each weighed out in a 250 ml Erlenmeyer flask (5 g±0.01 g) and admixed with distilled water (50 ml, 20-22° C.). The mixture thus obtained was shaken at 200 revolutions per minute (rpm, rotary movement) for 20 min. Thereafter, the mixture was transferred to a centrifuge tube and centrifuged at 5000 rpm for 20 min. […] The solubility in g per 100 g of water was then obtained from the formula TR×10, where TR represents the determined dry residue in grams.

Regarding `O.O.O=P([O-])([O-])O.[Ca+2]` [Example V8, dicalcium phosphate dihydrate], the Hemostatic result in series [1] is recorded as “No (hemostatic refers to phosphates where the thrombograms, as determined by the above-described technique, have a maximum thrombin concentration of at least 50 nM)”. Same read-out and setting: next, `O=P([O-])([O-])OP(=O)([O-])OP(=O)([O-])[O-].[Na+].[Na+].[Na+].[Na+].[Na+]` [Example V1, sodium triphosphate]: “No (hemostatic refers to phosphates where the thrombograms, as determined by the above-described technique, have a maximum thrombin concentration of at least 50 nM)”. As to `O=P1([O-])OP(=O)([O-])OP(=O)([O-])O1.[Na+].[Na+].[Na+]` [Example V7, sodium trimetaphosphate], the Hemostatic result in series [1] is recorded as “No (hemostatic refers to phosphates where the thrombograms, as determined by the above-described technique, have a maximum thrombin concentration of at least 50 nM)”. Moreover, the Water-soluble entry in series [2] was “Yes (water-soluble refers to phosphates having a water solubility of at least 1 g per 100 g of water)”.
